Earlier results, collected in article PMC12125103 (Naunyn-Schmiedeberg's Archives of Pharmacology, 2024).

etelcalcetide [Parsabiv]
maximum single dose in healthy humans for safe tolerance: 10 mg
